A word on the IC50: it is the point on the concentration scale where inhibition reaches its midpoint.

For 19 compounds, IC50 results are on record in PubChem BioAssay AID651670 (Sanford-Burnham Center for Chemical Genomics, 2012).

Active and inactive are the calls of the source.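 The calls were made as follows: active = IC50 at or below 20 µM; inactive = the rest.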

The target in this assay is Fatty acid synthase (Homo sapiens) (UniProt P49327). As to the kind of experiment: inhibition of human FAS-TE enzyme activity – biochemical, endpoint fluorescence intensity, analogs, SAR follow-up (AID 651670). The conditions noted are these: recombinant FAS-TE, OMFH fluorogenic substrate.
Sequence of Fatty acid synthase (Homo sapiens) (P49327 whole entry, looked up): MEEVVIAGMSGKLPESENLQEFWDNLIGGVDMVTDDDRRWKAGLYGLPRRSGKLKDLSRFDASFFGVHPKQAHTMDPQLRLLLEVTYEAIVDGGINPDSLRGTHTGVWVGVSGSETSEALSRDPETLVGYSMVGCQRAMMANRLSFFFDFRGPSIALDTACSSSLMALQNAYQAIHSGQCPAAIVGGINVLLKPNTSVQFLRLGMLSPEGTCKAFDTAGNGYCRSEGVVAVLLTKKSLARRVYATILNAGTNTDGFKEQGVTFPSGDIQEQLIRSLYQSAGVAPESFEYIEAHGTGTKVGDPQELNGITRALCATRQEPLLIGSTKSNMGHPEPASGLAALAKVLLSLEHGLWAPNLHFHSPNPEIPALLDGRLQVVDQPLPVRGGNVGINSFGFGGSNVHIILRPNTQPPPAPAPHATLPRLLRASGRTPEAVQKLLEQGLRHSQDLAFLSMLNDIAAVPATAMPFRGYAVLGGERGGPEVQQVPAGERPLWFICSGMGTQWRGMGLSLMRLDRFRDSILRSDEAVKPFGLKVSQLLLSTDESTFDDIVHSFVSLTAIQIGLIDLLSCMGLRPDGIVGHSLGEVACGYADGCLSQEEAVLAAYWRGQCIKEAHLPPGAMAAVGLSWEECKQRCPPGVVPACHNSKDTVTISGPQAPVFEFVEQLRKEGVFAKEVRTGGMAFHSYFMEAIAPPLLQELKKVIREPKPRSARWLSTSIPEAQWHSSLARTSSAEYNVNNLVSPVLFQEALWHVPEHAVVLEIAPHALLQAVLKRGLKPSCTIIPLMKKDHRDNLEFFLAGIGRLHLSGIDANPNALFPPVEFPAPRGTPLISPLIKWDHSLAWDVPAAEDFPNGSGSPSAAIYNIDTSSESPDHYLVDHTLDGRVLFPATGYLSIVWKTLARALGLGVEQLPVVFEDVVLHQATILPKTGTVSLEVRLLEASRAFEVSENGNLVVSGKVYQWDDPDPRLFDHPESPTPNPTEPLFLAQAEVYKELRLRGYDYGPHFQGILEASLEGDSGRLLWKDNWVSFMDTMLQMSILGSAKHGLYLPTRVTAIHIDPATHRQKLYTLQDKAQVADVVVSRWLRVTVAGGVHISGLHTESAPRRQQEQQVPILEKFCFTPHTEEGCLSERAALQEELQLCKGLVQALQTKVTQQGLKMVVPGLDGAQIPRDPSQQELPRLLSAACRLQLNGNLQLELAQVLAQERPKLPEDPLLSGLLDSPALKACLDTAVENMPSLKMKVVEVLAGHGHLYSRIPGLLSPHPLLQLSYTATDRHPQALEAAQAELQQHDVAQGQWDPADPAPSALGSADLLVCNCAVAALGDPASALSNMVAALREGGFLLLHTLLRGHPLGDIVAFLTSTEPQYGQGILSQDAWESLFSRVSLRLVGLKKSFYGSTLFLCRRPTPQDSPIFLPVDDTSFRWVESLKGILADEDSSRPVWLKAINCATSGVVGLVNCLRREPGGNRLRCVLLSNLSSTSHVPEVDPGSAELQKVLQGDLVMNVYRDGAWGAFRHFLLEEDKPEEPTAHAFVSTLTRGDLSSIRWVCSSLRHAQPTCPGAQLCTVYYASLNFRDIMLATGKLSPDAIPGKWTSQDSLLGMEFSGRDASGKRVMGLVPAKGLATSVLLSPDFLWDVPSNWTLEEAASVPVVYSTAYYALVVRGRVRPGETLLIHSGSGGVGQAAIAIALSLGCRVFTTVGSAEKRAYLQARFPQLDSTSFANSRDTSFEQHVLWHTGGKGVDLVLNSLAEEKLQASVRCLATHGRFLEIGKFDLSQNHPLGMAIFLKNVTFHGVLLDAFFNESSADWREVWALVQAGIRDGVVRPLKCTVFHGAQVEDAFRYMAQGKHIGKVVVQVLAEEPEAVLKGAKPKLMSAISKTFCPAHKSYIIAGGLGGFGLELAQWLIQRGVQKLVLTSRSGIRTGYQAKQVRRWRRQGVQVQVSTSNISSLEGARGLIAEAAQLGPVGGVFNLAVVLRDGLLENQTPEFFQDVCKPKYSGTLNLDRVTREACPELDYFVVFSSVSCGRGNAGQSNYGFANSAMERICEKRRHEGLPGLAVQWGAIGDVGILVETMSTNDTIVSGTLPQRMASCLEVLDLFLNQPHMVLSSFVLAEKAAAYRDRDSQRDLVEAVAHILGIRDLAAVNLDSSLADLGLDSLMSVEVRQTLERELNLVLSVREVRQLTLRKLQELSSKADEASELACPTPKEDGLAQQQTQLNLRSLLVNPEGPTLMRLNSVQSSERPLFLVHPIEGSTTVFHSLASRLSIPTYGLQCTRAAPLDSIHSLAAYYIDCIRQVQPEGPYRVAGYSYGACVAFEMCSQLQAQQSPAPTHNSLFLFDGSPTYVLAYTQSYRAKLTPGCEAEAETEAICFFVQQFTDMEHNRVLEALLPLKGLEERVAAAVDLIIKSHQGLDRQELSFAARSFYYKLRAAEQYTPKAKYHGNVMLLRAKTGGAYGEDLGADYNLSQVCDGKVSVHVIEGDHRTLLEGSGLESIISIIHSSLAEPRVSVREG
Take `Cn1c(Cc2ccccc2)nnc1SCC(=O)Nc1ncc(C(F)(F)F)cc1Cl`: the IC50 entry was “inactive”.

With `CCc1ccc(CN(C)C(=O)Cc2ccc(S(=O)(=O)N3CCCC3)s2)cc1`, the IC50 is 12.9 µM.

Turning to `CC(=O)Nc1nc(-c2ccc(S(=O)(=O)N3CCOCC3)cc2)cs1`, the IC50 is 15.3 µM.

Turning to `COc1ccc(-c2nnc(SCC(=O)Nc3ncc(C(F)(F)F)cc3Cl)n2C)cc1`, the IC50 was 1.96 µM.

As to `Cn1c(SCC(=O)Nc2ccccc2)nnc1-c1ccc(Cl)cc1`, the IC50 is > 80 µM (inactive).

`CCCCn1c(SCC(=O)Nc2ncc(C(F)(F)F)cc2Cl)nnc1-c1ccc(OC)cc1`: the IC50 is 0.67 µM.

In the case of `COc1ccc(CN(C)C(=O)Cc2ccc(S(=O)(=O)N3CCOCC3)s2)cc1OC`, the IC50 is > 80 µM (inactive).

Turning to `O=C(Nc1nc(-c2ccc(S(=O)(=O)N3CCOCC3)cc2)cs1)c1cccs1`, the IC50 entry is “inactive”.

Consider `Cc1ccccc1NC(=O)CSc1nnc(-c2ccc(Cl)cc2)n1C`, for which the IC50 is > 80 µM (inactive).

Consider `Cn1c(SCC(=O)Nc2ncc(C(F)(F)F)cc2Cl)nnc1-c1ccc(F)cc1`, for which the IC50 is 8.27 µM.

Regarding `Cn1c(SCC(=O)Nc2cccc(Cl)c2)nnc1-c1ccc(Cl)cc1`, the IC50 is > 80 µM (inactive).

Turning to `CCCn1c(SCC(=O)Nc2ncc(C(F)(F)F)cc2Cl)nnc1-c1ccncc1`, the IC50 result is “inactive”.

Regarding `O=S(=O)(c1ccc(-c2csc(Cc3ccccc3)n2)cc1)N1CCOCC1`, the IC50 was 0.664 µM.

In the case of `Cc1nnc(SCC(=O)Nc2ncc(C(F)(F)F)cc2Cl)n1-c1ccccc1`, the IC50 is > 80 µM (inactive).

Turning to `O=S(=O)(c1ccc(-c2csc(N3CCCC3)n2)cc1)N1CCOCC1`, the IC50 is 0.948 µM.

In the case of `CN(Cc1cccc(F)c1)C(=O)Cc1ccc(S(=O)(=O)N2CCOCC2)s1`, the IC50 is > 80 µM (inactive).

For `CCn1c(SCC(=O)Nc2ncc(C(F)(F)F)cc2Cl)nnc1-c1ccncc1`, the IC50 result was “inactive”.

Take `O=C(Nc1nc(-c2ccc(S(=O)(=O)N3CCOCC3)cc2)cs1)c1ccco1`: the IC50 entry is “inactive”.

For the compound `Cc1ccc(NC(=O)Cc2nc(-c3ccc(S(=O)(=O)N4CCOCC4)cc3)cs2)cc1`, the IC50 was > 80 µM (inactive).
